# Experimental data as given in patent US20020026053A1, “Novel 3-(substituted) -2- indolinones compounds and use thereof as inhibitors of protein kinase activity” (priority 1997, published 2002).
# Biological target: T1, Met receptor (EGFR/Met chimeric cells, EMR) (Homo sapiens, UniProt P08581)
# T1 construct: expressed in transfected cells; the other entry of the earlier key: EGFR (P00533, Epidermal growth factor receptor)
# Experiment: Met Autophosphorylation Assay
# Type: biochemical
# Conditions: protocol P.130
# How it was run: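 Met phosphorylation was measured by capture ELISA. Lysates (90 μg/100 μl, HNTG plus 1 mM PMSF) from transiently transfected EGFR/Met chimera (EMR) cells were bound for 60 min at room temperature to wells holding rabbit anti-Met (C-28) on goat anti-rabbit coat. Phosphotyrosine was the read-out.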
# T1 sequence (P08581 with tags, fused parts or gaps): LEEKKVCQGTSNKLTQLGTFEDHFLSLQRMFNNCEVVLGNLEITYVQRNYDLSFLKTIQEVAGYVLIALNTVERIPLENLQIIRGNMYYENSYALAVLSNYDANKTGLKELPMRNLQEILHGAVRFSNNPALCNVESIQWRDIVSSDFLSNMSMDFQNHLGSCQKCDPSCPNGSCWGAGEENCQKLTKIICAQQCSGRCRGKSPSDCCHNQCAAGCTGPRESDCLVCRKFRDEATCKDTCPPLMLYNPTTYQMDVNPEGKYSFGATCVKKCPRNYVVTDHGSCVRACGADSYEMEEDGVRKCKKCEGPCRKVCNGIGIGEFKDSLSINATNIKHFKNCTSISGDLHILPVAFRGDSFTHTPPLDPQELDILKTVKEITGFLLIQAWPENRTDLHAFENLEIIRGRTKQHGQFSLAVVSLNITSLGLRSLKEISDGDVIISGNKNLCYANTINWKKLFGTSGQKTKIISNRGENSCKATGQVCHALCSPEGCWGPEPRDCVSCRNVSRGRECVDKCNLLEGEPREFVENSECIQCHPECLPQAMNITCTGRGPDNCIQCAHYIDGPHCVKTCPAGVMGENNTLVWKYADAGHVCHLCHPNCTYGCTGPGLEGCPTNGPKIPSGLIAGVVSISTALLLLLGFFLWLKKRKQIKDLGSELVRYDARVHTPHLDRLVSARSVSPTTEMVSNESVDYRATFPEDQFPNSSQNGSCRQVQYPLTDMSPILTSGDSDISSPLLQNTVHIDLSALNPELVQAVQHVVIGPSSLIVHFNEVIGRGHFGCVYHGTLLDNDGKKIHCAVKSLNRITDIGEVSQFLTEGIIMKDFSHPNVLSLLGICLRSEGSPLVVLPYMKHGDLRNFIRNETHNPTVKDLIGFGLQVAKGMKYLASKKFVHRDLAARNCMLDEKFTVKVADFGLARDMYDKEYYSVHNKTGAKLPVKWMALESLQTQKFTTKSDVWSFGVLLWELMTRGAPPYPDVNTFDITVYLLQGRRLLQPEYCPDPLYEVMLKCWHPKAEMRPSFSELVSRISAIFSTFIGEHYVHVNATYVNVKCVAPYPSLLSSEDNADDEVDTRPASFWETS
row,SMILES,Met Kinase % Inhibition (P.130)
1,O=C1Nc2ccc(CCCl)cc2C1=Cc1ccc(CO)o1 [10739/G11],56.7%
2,COc1ccc(Oc2cccc(C=C3C(=O)Nc4ccc(S(=O)(=O)Nc5ccc(C(F)(F)F)cc5)cc43)c2)cc1 [10739/E08],16.1%
3,COc1ccc(C=C2C(=O)Nc3ccc(S(=O)(=O)N4CCOCC4)cc32)cc1C [10739/F02],50.8%
4,COc1ccc(Oc2cccc(C=C3C(=O)Nc4ccc(S(=O)(=O)N5CCOCC5)cc43)c2)cc1 [10739/F08],13.4%
5,O=C1Nc2ccc(CCCl)cc2C1=CC1COc2ccccc2O1 (stereo not drawn) [10739/G05],27.7%
6,O=C1Nc2ccc(CCCl)cc2C1=Cc1ccc(OCc2ccccc2)cc1 [10739/G04],4.1%
7,COc1ccc(C=C2C(=O)Nc3c(Br)cc(Br)c(C)c32)cc1C [10739/H02],26.6%
8,COc1ccc(Oc2cccc(C=C3C(=O)Nc4c(Br)cc(Br)c(C)c43)c2)cc1 [10739/H08],22.9%
9,Cc1c(Br)ccc2c1C(=Cc1cc(O)c(O)c(O)c1)C(=O)N2 [10739/C07],93.0%
10,Cc1c(Br)ccc2c1C(=Cc1ccc(OCc3ccccc3)cc1)C(=O)N2 [10739/C04],−3.6%
11,O=C1Nc2ccc(S(=O)(=O)N3CCOCC3)cc2C1=Cc1ccc(CO)o1 [10739/F11],40.9%
12,Cc1c(Br)ccc2c1C(=CC1COc3ccccc3O1)C(=O)N2 (stereo not drawn) [10739/C05],34.7%
13,Cc1c(Br)ccc2c1C(=Cc1ccoc1)C(=O)N2 [10739/C10],66.3%
14,O=C1Nc2c(Br)cc(Br)cc2C1=Cc1ccoc1 [10739/A10],81.2%
15,CNS(=O)(=O)c1ccc2c(c1)C(=Cc1ccc(OCc3ccccc3)cc1)C(=O)N2 [10739/D04],11.1%
16,CNS(=O)(=O)c1ccc2c(c1)C(=Cc1cccc(Oc3ccc(OC)cc3)c1)C(=O)N2 [10739/D08],5.2%
17,O=C1Nc2ccc(I)cc2C1=Cc1cc(O)c(O)c(O)c1 [10739/B07],98.7%
18,CNS(=O)(=O)c1ccc2c(c1)C(=Cc1ccc(OCCCN(C)C)cc1)C(=O)N2 [10739/D09],66.7%
19,Cc1c(Br)cc(Br)c2c1C(=Cc1ccc(Cl)c(Cl)c1)C(=O)N2 [10738/H08],20.7%
20,Cc1c(Br)cc(Br)c2c1C(=Cc1cc(O)c(O)c(O)c1)C(=O)N2 [10739/H07],93.7%
21,Cc1c(Br)cc(Br)c2c1C(=Cc1ccc(OCc3ccccc3)cc1)C(=O)N2 [10739/H04],−2.7%
22,O=C1Nc2ccc(I)cc2C1=Cc1cccc(OCc2ccccc2)c1 [10739/B03],62.4%
23,O=C1Nc2ccc(CCCl)cc2C1=Cc1cccc(OCc2ccccc2)c1 [10739/G03],9.3%
24,Cc1c(Br)ccc2c1C(=Cc1ccc(OCCCN(C)C)cc1)C(=O)N2 [10739/C09],76.3%
25,O=C1Nc2c(Br)cc(Br)cc2C1=CC1COc2ccccc2O1 (stereo not drawn) [10739/A05],36.5%
26,O=C1Nc2ccc(I)cc2C1=Cc1ccc(OCc2ccccc2)cc1 [10739/B04],65.1%

row,SMILES,Met Kinase % Inhibition (P.130)
1,O=C1Nc2ccc(CCCl)cc2C1=Cc1ccc(O)cc1Cl [10739/G06],27.7%
2,O=C1Nc2ccc(I)cc2C1=CC1COc2ccccc2O1 (stereo not drawn) [10739/B05],74.0%
3,O=C1Nc2c(Br)cc(Br)cc2C1=Cc1cc(O)c(O)c(O)c1 [10739/A07],99.9%
4,O=C1Nc2ccc(CCCl)cc2C1=Cc1ccoc1 [10739/G10],36.5%
5,COc1ccc(C=C2C(=O)Nc3ccc(Br)c(C)c32)cc1C [10739/C02],34.7%
6,Cc1c(Br)cc(Br)c2c1C(=Cc1cccc(OCc3ccccc3)c1)C(=O)N2 [10739/H03],10.4%
7,CNS(=O)(=O)c1ccc2c(c1)C(=Cc1ccc(O)cc1Cl)C(=O)N2 [10739/D06],59.2%
8,O=C1Nc2ccc(S(=O)(=O)N3CCOCC3)cc2C1=Cc1ccc(OCc2ccccc2)cc1 [10739/F04],30.4%
9,COc1ccc(C=C2C(=O)Nc3ccc(I)cc32)cc1C [10739/B02],68.1%
10,O=C1Nc2ccc(S(=O)(=O)N3CCOCC3)cc2C1=CC1COc2ccccc2O1 (stereo not drawn) [10739/F05],−5.4%
11,O=C1Nc2c(Br)cc(Br)cc2C1=Cc1cccc(OCc2ccccc2)c1 [10739/A03],37.4%
12,O=C1Nc2c(Br)cc(Br)cc2C1=Cc1ccc(CO)o1 [10739/A11],82.8%
13,O=C1Nc2ccc(S(=O)(=O)Nc3ccc(C(F)(F)F)cc3)cc2C1=Cc1cccc(OCc2ccccc2)c1 [10739/E03],−3.4%
14,COc1ccc(C=C2C(=O)Nc3ccc(CCCl)cc32)cc1C [10739/G02],12.9. %
15,O=C1Nc2ccc(S(=O)(=O)Nc3ccc(C(F)(F)F)cc3)cc2C1=CC1COc2ccccc2O1 (stereo not drawn) [10739/E05],8.9%
16,O=C1Nc2ccc(S(=O)(=O)Nc3ccc(C(F)(F)F)cc3)cc2C1=Cc1ccoc1 [10739/E10],71.9%
17,Cc1c(Br)cc(Br)c2c1C(=Cc1ccc(O)cc1Cl)C(=O)N2 [10739/H06],42.2%
18,COc1ccc(Oc2cccc(C=C3C(=O)Nc4ccc(CCCl)cc43)c2)cc1 [10739/G08],20.9%
19,O=C1Nc2ccc(S(=O)(=O)Nc3ccc(C(F)(F)F)cc3)cc2C1=Cc1ccc(OCc2ccccc2)cc1 [10739/E04],−15.2%
20,O=C1Nc2ccc(I)cc2C1=Cc1ccoc1 [10739/B10],70.6%
21,CN(C)CCCOc1ccc(C=C2C(=O)Nc3ccc(I)cc32)cc1 [10739/B09],63.5%
22,CN(C)CCCOc1ccc(C=C2C(=O)Nc3c(Br)cc(Br)cc32)cc1 [10739/A09],60.4%
23,O=C1Nc2ccc(S(=O)(=O)N3CCOCC3)cc2C1=Cc1ccoc1 [10739/F10],40.4%
24,COc1ccccc1C=C1C(=O)Nc2c(Br)cc(Br)c(C)c21 [10738/H09],52.3%
25,O=C1Nc2ccc(S(=O)(=O)Nc3ccc(C(F)(F)F)cc3)cc2C1=Cc1ccc(CO)o1 [10739/E11],76.9%
26,O=C1Nc2c(Br)cc(Br)cc2C1=Cc1ccc(OCc2ccccc2)cc1 [10739/A04],45.2%

row,SMILES,Met Kinase % Inhibition (P.130)
1,Cc1c(Br)ccc2c1C(=Cc1cccc(OCc3ccccc3)c1)C(=O)N2 [10739/C03],10.9%
2,COc1ccc(C=C2C(=O)Nc3c(Br)cc(Br)cc32)cc1C [10739/A02],41.8%
3,O=C1Nc2ccc(S(=O)(=O)N3CCOCC3)cc2C1=Cc1cccc(OCc2ccccc2)c1 [10739/F03],38.8%
4,CNS(=O)(=O)c1ccc2c(c1)C(=Cc1ccc(OC)c(C)c1)C(=O)N2 [10739/D02],29.0%
5,CNS(=O)(=O)c1ccc2c(c1)C(=Cc1cc(O)c(O)c(O)c1)C(=O)N2 [10739/D07],86.0%
6,CCCOc1ccc(C=C2C(=O)Nc3c(Br)cc(Br)c(C)c32)cc1 [10738/H11],24.9%
7,Cc1c(Br)cc(Br)c2c1C(=Cc1cc(O)cc(O)c1)C(=O)N2 [10738/H07],77.2%
8,O=C1Nc2ccc(S(=O)(=O)Nc3ccc(C(F)(F)F)cc3)cc2C1=Cc1cc(O)c(O)c(O)c1 [10739/E07],94.0%
9,CNS(=O)(=O)c1ccc2c(c1)C(=Cc1cccc(OCc3ccccc3)c1)C(=O)N2 [10739/D03],15.9%
10,COc1ccc(C=C2C(=O)Nc3ccc(S(=O)(=O)Nc4ccc(C(F)(F)F)cc4)cc32)cc1C [10739/E02],30.0%
11,O=C1Nc2ccc(I)cc2C1=Cc1ccc(O)cc1Cl [10739/B06],68.1%
12,Cc1c(Br)cc(Br)c2c1C(=Cc1ccc(C(C)C)cc1)C(=O)N2 [10738/H10],27.7%
13,COc1ccc(Oc2cccc(C=C3C(=O)Nc4ccc(I)cc43)c2)cc1 [10739/B08],65.8%
14,O=C1Nc2ccc(S(=O)(=O)N3CCOCC3)cc2C1=Cc1cc(O)c(O)c(O)c1 [10739/F07],100.5%
15,Cc1c(Br)ccc2c1C(=Cc1ccc(O)cc1Cl)C(=O)N2 [10739/C06],56.1%
16,O=C1Nc2ccc(S(=O)(=O)N3CCOCC3)cc2C1=Cc1ccc(O)cc1Cl [10739/F06],56.3%
17,COc1ccc(Oc2cccc(C=C3C(=O)Nc4ccc(Br)c(C)c43)c2)cc1 [10739/C08],9.1%
18,CN(C)CCCOc1ccc(C=C2C(=O)Nc3ccc(S(=O)(=O)N4CCOCC4)cc32)cc1 [10739/F09],−7.0%
19,O=C1Nc2ccc(CCCl)cc2C1=Cc1cc(O)c(O)c(O)c1 [10739/G07],92.6%
20,COc1ccc(Oc2cccc(C=C3C(=O)Nc4c(Br)cc(Br)cc43)c2)cc1 [10739/A08],39.9%
21,O=C1Nc2ccc(S(=O)(=O)Nc3ccc(C(F)(F)F)cc3)cc2C1=Cc1ccc(O)cc1Cl [10739/E06],66.3%
22,O=C1Nc2c(Br)cc(Br)cc2C1=Cc1ccc(O)cc1Cl [10739/A06],70.1%
23,Cc1c(Br)cc(Br)c2c1C(=Cc1ccoc1)C(=O)N2 [10739/H10],62.4%
24,CN(C)CCCOc1ccc(C=C2C(=O)Nc3ccc(S(=O)(=O)Nc4ccc(C(F)(F)F)cc4)cc32)cc1 [10739/E09],33.8%
25,CN(C)CCCOc1ccc(C=C2C(=O)Nc3ccc(CCCl)cc32)cc1 [10739/G09],46.1%
26,CNS(=O)(=O)c1ccc2c(c1)C(=CC1COc3ccccc3O1)C(=O)N2 (stereo not drawn) [10739/D05],30.0%
